Patent publication US20050282755A1, “Compositions having antimicrobial activity and uses thereof” (priority 2004, published 2005)
≈ marks a conversion by molar mass, not a printed value. Non-standard residues stand in square brackets, D forms with d. Residues, ends and D or L forms follow the SMILES beside them. *: point of attachment. Lauroyl = CCCCCCCCCCCC(=O)*

Experiments:
Format in all cases: cell-based
[1] = tested on: Staphylococcus aureus ATCC 29213; experiment: MIC, NCCLS M7-A6 broth microdilution, cation-adjusted Mueller Hinton broth (Table 9, no superscript); details: ATCC 29213
Procedure, shortened: (§1)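 Values come from a broth microdilution assay run in cation-adjusted Mueller Hinton broth with an inoculum of 5×10^5 to 1×10^6 CFU/milliliter, incubated overnight at 37° C and read as absence of visible turbidity.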

[2] = tested on: Escherichia coli ATCC 25922; experiment: MIC, NCCLS M7-A6 broth microdilution (Table 9, no superscript); details: ATCC 25922
Procedure, shortened: as §1

Salmonella dublin (Lane) = experiment: as above
Procedure, shortened: as §1

[3] = tested on: Pseudomonas aeruginosa ATCC 27853; experiment: as above; details: ATCC 27853
Procedure, shortened: as §1

[4] = tested on: Staphylococcus epidermidis ATCC 12228; experiment: as above; details: ATCC 12228
Procedure, shortened: as §1

[5] = tested on: Propionibacterium acnes ATCC 6919; experiment: MIC, agar dilution method NCCLS M11-A6, Brucella agar, anaerobic (Table 9, superscript c); details: ATCC 6919
Description: A bacterial suspension was prepared to allow for a final inoculum on the plate of 1.5×10^8 CFU/milliliter. After the suspension absorbed into the agar surface, the plates were incubated for 48-96 hours at 37° C. in a GasPak anaerobic chamber. The lowest concentration of peptide that contained no colony growth on the agar plate was determined as the MIC. MIC values that utilized this method of MIC determination are indicated in Table 9 with a superscript letter “c.”

Row | Compound | MIC S. aureus [1] [µg/mL] | MIC E. coli [2] [µg/mL] | MIC S. dublin (Salmonella dublin (Lane)) [µg/mL] | MIC P. aeruginosa [3] [µg/mL] | MIC S. epidermidis [4] [µg/mL] | MIC P. acnes [5] [c ug/mL]
1 | CCCCCCCCCCCC(=O)N[C@H](CO)C(=O)N[C@H](CCCNC(=N)N)C(=O)N[C@H](Cc1c[nH]c2ccccc12)C(=O)N[C@H](CCCNC(=N)N)C(=O)N[C@H](CC(=O)O)C(=O)N[C@@H](C(=O)N[C@H](C)C(=O)N[C@H](CCCNC(=N)N)C(=O)N[C@H](CC(N)=O)C(=O)N[C@H](Cc1ccccc1)C(=O)N[C@H](CC(C)C)C(=O)N[C@H](CCCNC(=N)N)C(N)=O)C(C)C [Peptide 212, Lauryl-srwrdvarnflr-NH2] (Lauroyl-[dS][dR][dW][dR][dD][dV][dA][dR][dN][dF][dL][dR]-NH2) | 4 (≈ 2.28 µM) | 8 (≈ 4.55 µM) | 4 (≈ 2.28 µM) | 64 (≈ 36.4 µM) | 2 (≈ 1.14 µM) | 2
2 | CCCCCCCCCCCC(=O)N[C@H](CCCNC(=N)N)C(=O)N[C@H](C)C(=O)N[C@H](CCCNC(=N)N)C(=O)N[C@H](Cc1c[nH]c2ccccc12)C(=O)N[C@H](CCCNC(=N)N)C(=O)N[C@H](CC(=O)O)C(=O)N[C@@H](C(=O)N[C@H](C)C(=O)N[C@H](CCCNC(=N)N)C(=O)N[C@H](CC(N)=O)C(=O)N[C@H](Cc1ccccc1)C(=O)N[C@H](CC(C)C)C(=O)N[C@H](CCCNC(=N)N)C(N)=O)C(C)C [Peptide 224, Lauryl-rarwrdvarnflr-NH2] (Lauroyl-[dR][dA][dR][dW][dR][dD][dV][dA][dR][dN][dF][dL][dR]-NH2) | 2 (≈ 1.05 µM) | 8 (≈ 4.22 µM) | 4 (≈ 2.11 µM) | 16 (≈ 8.43 µM) | 2 (≈ 1.05 µM) | 32
3 | CCCCCCCCCCCC(=O)N[C@H](CCCNC(=N)N)C(=O)N[C@H](CO)C(=O)N[C@H](CCCNC(=N)N)C(=O)N[C@H](Cc1c[nH]c2ccccc12)C(=O)N[C@H](CCCNC(=N)N)C(=O)N[C@H](CC(=O)O)C(=O)N[C@@H](C(=O)N[C@H](C)C(=O)N[C@H](CCCNC(=N)N)C(=O)N[C@H](CC(N)=O)C(=O)N[C@H](Cc1ccccc1)C(=O)N[C@H](CC(C)C)C(N)=O)C(C)C [Peptide 211, Lauryl-rsrwrdvarnfl-NH2] (Lauroyl-[dR][dS][dR][dW][dR][dD][dV][dA][dR][dN][dF][dL]-NH2) | 4 (≈ 2.28 µM) | 8 (≈ 4.55 µM) | 4 (≈ 2.28 µM) | 64 (≈ 36.4 µM) | 2 (≈ 1.14 µM) | 4
4 | CCCCCCCCCCCC(=O)N[C@@H](Cc1c[nH]c2ccccc12)C(=O)N[C@@H](CCCNC(=N)N)C(=O)N[C@@H](CC(=O)O)C(=O)N[C@H](C(=O)N[C@@H](C)C(=O)N[C@@H](CCCNC(=N)N)C(=O)N[C@@H](CC(N)=O)C(N)=O)C(C)C [Peptide 106, Lauryl-WRDVARN-NH2] (Lauroyl-WRDVARN-NH2) | 8 (≈ 7.29 µM) | >64 | >64 | >64 | 16 (≈ 14.6 µM) | >64
5 | CCCCCCCCCCCC(=O)N[C@H](CCCNC(=N)N)C(=O)N[C@H](Cc1c[nH]c2ccccc12)C(=O)N[C@H](CCCNC(=N)N)C(=O)N[C@H](C)C(=O)N[C@H](CC(C)C)C(=O)N[C@H](C)C(=O)N[C@H](CCCNC(=N)N)C(N)=O [Peptide 245, Lauryl-rwralar-NH2] (Lauroyl-[dR][dW][dR][dA][dL][dA][dR]-NH2) | 1 (≈ 0.901 µM) | 8 (≈ 7.21 µM) | 16 (≈ 14.4 µM) | 8 (≈ 7.21 µM) | 2 (≈ 1.8 µM) | 8
6 | CCCCCCCCCCCC(=O)N[C@@H](C(=O)N[C@H](CCCNC(=N)N)C(=O)N[C@@H](C(=O)N[C@H](CO)C(=O)N[C@H](CCCNC(=N)N)C(=O)N[C@@H](C(=O)NCC(=O)N[C@H](CCCNC(=N)N)C(=O)N[C@H](CO)C(=O)N[C@H](CCCNC(=N)N)C(=O)N[C@H](Cc1c[nH]c2ccccc12)C(=O)N[C@H](CCCNC(=N)N)C(=O)N[C@H](CC(=O)O)C(=O)N[C@H](Cc1c[nH]c2ccccc12)C(=O)N[C@H](CO)C(=O)N[C@H](CCCNC(=N)N)C(=O)N[C@H](CC(N)=O)C(=O)N[C@H](Cc1ccccc1)C(=O)N[C@H](CCSC)C(=O)N[C@H](CCCNC(=N)N)C(=O)N[C@H](C)C(=O)N[C@H](C)C(=O)N[C@@H](CCCCN)C(N)=O)[C@H](C)O)C(C)C)[C@H](C)O [Peptide 80, Lauryl-trvsrtgrsrwrdwsrnfmraaK-NH2] (Lauroyl-[dT][dR][dV][dS][dR][dT]G[dR][dS][dR][dW][dR][dD][dW][dS][dR][dN][dF][dM][dR][dA][dA]K-NH2) | 16 (≈ 5.22 µM) | 32 (≈ 10.4 µM) | 16 (≈ 5.22 µM) | >64 | 2 (≈ 0.653 µM) | >64
7 | CCCCCCCCCCCC(=O)N[C@@H](CCCNC(=N)N)C(=O)N[C@@H](Cc1c[nH]c2ccccc12)C(=O)N[C@@H](CCCNC(=N)N)C(=O)N[C@@H](CC(=O)O)C(=O)N[C@H](C(=O)N[C@@H](C)C(=O)N[C@@H](CCCNC(=N)N)C(=O)N[C@@H](CC(N)=O)C(=O)N[C@@H](Cc1ccccc1)C(=O)N[C@@H](CC(C)C)C(=O)N[C@@H](CCCNC(=N)N)C(N)=O)C(C)C [Peptide 163, Lauryl-RWRDVARNFLR-NH2] (Lauroyl-RWRDVARNFLR-NH2) | 4 (≈ 2.4 µM) | 16 (≈ 9.58 µM) | 8 (≈ 4.79 µM) | >64 | 8 (≈ 4.79 µM) | >64
8 | CCCCCCCCCCCC(=O)N[C@@H](CCCNC(=N)N)C(=O)N[C@@H](Cc1c[nH]c2ccccc12)C(=O)N[C@@H](CCCNC(=N)N)C(=O)N[C@@H](CC(=O)O)C(=O)N[C@H](C(=O)N[C@@H](C)C(=O)N[C@@H](CCCNC(=N)N)C(=O)N[C@@H](CC(N)=O)C(=O)N[C@@H](Cc1ccccc1)C(=O)N[C@@H](CCSC)C(=O)N[C@@H](CCCNC(=N)N)C(N)=O)C(C)C [Peptide 113, Lauryl-RWRDVARNFMR-NH2] (Lauroyl-RWRDVARNFMR-NH2) | 4 (≈ 2.37 µM) | 8 (≈ 4.74 µM) | 16 (≈ 9.48 µM) | >64 | 2 (≈ 1.18 µM) | >64
9 | CCCCCCCCCCCC(=O)N[C@H](CCCNC(=N)N)C(=O)N[C@H](CCCCN)C(=O)N[C@H](CCCNC(=N)N)C(=O)N[C@H](Cc1c[nH]c2ccccc12)C(=O)N[C@H](CCCNC(=N)N)C(=O)N[C@H](CCC(=O)O)C(=O)N[C@@H](C(=O)N[C@H](C)C(=O)N[C@H](CCCNC(=N)N)C(=O)N[C@H](CC(N)=O)C(=O)N[C@H](Cc1ccccc1)C(=O)N[C@H](CC(C)C)C(=O)N[C@H](CCCNC(=N)N)C(N)=O)C(C)C [Peptide 220, Lauryl-rkrwrevarnflr-NH2] (Lauroyl-[dR][dK][dR][dW][dR][dE][dV][dA][dR][dN][dF][dL][dR]-NH2) | 2 (≈ 1.02 µM) | 4 (≈ 2.03 µM) | 2 (≈ 1.02 µM) | 8 (≈ 4.06 µM) | 1 (≈ 0.508 µM) | 16
10 | CCCCCCCCCCCC(=O)N[C@H](CCCNC(=N)N)C(=O)N[C@H](CO)C(=O)N[C@H](CCCNC(=N)N)C(=O)N[C@H](Cc1c[nH]c2ccccc12)C(=O)N[C@H](CCCNC(=N)N)C(=O)N[C@H](C)C(=O)N[C@@H](C(=O)N[C@H](C)C(=O)N[C@H](CCCNC(=N)N)C(=O)N[C@H](CC(N)=O)C(=O)N[C@H](Cc1ccccc1)C(=O)N[C@H](CC(C)C)C(=O)N[C@H](CCCNC(=N)N)C(N)=O)C(C)C [Peptide 225, Lauryl-rsrwravarnflr-NH2] (Lauroyl-[dR][dS][dR][dW][dR][dA][dV][dA][dR][dN][dF][dL][dR]-NH2) | 1 (≈ 0.535 µM) | 16 (≈ 8.56 µM) | 1 (≈ 0.535 µM) | 16 (≈ 8.56 µM) | 2 (≈ 1.07 µM) | 8
11 | CCCCCCCCCCCC(=O)N[C@H](CCCNC(=N)N)C(=O)N[C@H](CO)C(=O)N[C@H](CCCNC(=N)N)C(=O)N[C@H](Cc1c[nH]c2ccccc12)C(=O)N[C@H](CCCNC(=N)N)C(=O)N[C@H](CC(=O)O)C(=O)N[C@H](CO)C(=O)N[C@H](C)C(=O)N[C@H](CCCNC(=N)N)C(=O)N[C@H](CC(N)=O)C(=O)N[C@H](Cc1ccccc1)C(=O)N[C@H](CCSC)C(=O)N[C@H](CCCNC(=N)N)C(N)=O [Peptide 233, Lauryl-rsrwrdsarnfmr-NH2] (Lauroyl-[dR][dS][dR][dW][dR][dD][dS][dA][dR][dN][dF][dM][dR]-NH2) | 16 (≈ 8.34 µM) | 16 (≈ 8.34 µM) | >64 | 64 (≈ 33.3 µM) | 16 (≈ 8.34 µM) | 16
